From publication PMC8312697, “Mechanistic Investigations Support Liver Safety of Ubrogepant” (Toxicological Sciences, 2020)
Read-outs that look alike come from different tables or passages of the source.

Key:
RNS/ROS production = assay: DILIsym fit of ROS data (oxidative stress parameter); design: species or system human; conditions: fit of 24-hour HepG2 ROS data
From the text: Parameter values for telcagepant-mediated induction of oxidative stress were identified by simulating the experimental data in DILIsym® using a DILIsym® dosing scheme meant to represent in vitro conditions.
Parameter values for ubrogepant-mediated induction of oxidative stress were identified by simulating the experimental data in DILIsym using a DILIsym drug exposure scheme designed to represent in vitro conditions.
Parameter values for MK-3207-mediated induction of oxidative stress were identified by simulating the experimental data in DILIsym using a DILIsym drug exposure scheme meant to represent in vitro conditions. Intracellular compound concentrations were also assayed in identical cell cultures; the experimental method was the same as that described above for ubrogepant.

MRP3 = target: T1, MRP3 (Homo sapiens, UniProt O15438); assay: MRP3 vesicular transport inhibition assay; format: biochemical; conditions: for inhibition of MRP3-mediated probe substrate transport: vesicular transport inhibition assay
T1 construct: Solvo Biotechnology (Szeged, Hungary), contract laboratory that ran the assay
T1 sequence (O15438 whole entry): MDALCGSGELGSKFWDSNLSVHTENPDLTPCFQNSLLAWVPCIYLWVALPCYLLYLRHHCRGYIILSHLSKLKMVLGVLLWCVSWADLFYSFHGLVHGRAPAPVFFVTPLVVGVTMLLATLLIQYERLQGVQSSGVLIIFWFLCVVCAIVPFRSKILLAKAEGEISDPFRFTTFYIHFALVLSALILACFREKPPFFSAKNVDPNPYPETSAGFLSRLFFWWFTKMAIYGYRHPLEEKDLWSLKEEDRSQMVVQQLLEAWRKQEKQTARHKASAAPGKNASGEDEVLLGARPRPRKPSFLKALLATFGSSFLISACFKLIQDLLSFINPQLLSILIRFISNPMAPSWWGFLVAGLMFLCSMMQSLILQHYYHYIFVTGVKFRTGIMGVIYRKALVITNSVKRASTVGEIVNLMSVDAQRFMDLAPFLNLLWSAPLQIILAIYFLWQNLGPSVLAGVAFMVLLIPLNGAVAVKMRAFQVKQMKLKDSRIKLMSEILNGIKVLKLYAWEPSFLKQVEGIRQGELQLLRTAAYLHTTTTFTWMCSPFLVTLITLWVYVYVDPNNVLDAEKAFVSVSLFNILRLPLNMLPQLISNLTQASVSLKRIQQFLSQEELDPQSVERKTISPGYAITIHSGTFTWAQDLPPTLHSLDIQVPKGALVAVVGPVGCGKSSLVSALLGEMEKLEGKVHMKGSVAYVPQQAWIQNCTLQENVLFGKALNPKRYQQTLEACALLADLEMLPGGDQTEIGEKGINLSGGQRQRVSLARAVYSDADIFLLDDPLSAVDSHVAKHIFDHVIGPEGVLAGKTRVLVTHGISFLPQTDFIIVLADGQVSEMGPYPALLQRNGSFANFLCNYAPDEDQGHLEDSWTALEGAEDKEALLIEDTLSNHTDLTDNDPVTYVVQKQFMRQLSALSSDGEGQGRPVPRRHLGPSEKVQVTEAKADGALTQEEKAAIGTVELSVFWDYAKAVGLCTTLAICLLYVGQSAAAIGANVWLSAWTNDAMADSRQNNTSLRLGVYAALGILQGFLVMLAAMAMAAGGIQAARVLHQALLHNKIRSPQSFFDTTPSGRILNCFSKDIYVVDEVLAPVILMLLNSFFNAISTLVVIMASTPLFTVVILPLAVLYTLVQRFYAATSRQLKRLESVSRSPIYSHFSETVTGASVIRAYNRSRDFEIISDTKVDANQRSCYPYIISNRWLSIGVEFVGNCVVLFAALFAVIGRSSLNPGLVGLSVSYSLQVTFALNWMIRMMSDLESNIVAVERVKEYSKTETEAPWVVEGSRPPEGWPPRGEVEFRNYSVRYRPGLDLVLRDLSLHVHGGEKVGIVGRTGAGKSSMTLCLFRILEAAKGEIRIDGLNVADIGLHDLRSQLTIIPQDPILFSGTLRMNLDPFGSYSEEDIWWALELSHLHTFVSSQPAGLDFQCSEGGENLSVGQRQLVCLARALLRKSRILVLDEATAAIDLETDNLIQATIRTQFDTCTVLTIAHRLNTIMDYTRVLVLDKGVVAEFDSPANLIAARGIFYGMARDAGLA
Method: To assess the functional impact of ubrogepant on the human ABC efflux transporters BSEP, MRP3, and MRP4, in vitro vesicular transport inhibition assays were conducted by Solvo Biotechnology (Szeged, Hungary). The ability of ubrogepant to inhibit the BSEP-mediated transport (and accumulation) of a probe substrate was tested at concentrations ranging from 0.04 – 30 μM, where the latter defined the upper limit of compound solubility in the BSEP assay buffer. For the MRP3 and MRP4 vesicle-based transporter assessments, ubrogepant concentrations of 0.1 to 70 μM were used. To assess the functional impact of ubrogepant on the human SLC (uptake) transporter NTCP, in vitro experiments were performed using HEK293 cells stably expressing NTCP. The ability of ubrogepant to inhibit NTCP-mediated uptake (and accumulation) of taurocholate was tested at concentrations ranging from 0.04 – 30 μM.
To assess the functional impact of MK-3207 on the human ABC efflux transporters BSEP, MRP3 and MRP4, in vitro vesicular transport inhibition assays were conducted by Solvo Biotechnology (Szeged, Hungary) and overseen by DSSI. BSEP transport was assessed in the presence of 0.5-30 µM MK-3207; MRP3 and MRP4 transport was assessed in the presence of 0.11-80 µM MK-3207. The upper limits of these ranges were determined by compound solubility in each assay buffer. NTCP transporter inhibition was assessed in NTCP-expressing HEK293 cells in the presence of 0.03 – 25 µM MK-3207.
IC50 values for MK-3207 were calculated for each of the transporters; these values were used as inputs into DILIsym. It was assumed that inhibition type for MK-3207 for MRP3 and MRP4 was mixed with α= 5; this is a typical value for bile acid transporter inhibitors in the experience of the DSS team.

Clinical study exposures = format: in vivo, human
[1] = tested on: Nrf2 electrophilic stress and Nrf1 proteasomal stress pathways; assay: In vivo rat liver gene expression bioactivation liver response assay (BA-LRA); conditions: for upregulation of pathways associated with electrophilic and proteasomal stress: rat liver gene expression studies; for maximum liver safe daily dose predicted from BA-LRA: human daily dose projected from rat BA-LRA score; for BA-LRA score: also presented in Monroe et al., 2018
From the text: A prediction of a clinical daily dose burden associated with reactive metabolite-mediated DILI potential was derived from a focused and integrated quantitative rat liver molecular gene expression signature optimized predominantly for Nrf2 electrophilic stress and Nrf1 proteasomal stress pathways to describe a bioactivation liver response assay (BA-LRA) result. […] The clinical dose is identified that projects DILI risk to exceed the optimized threshold calculation for each BA-LRA result.

HepG2 cells = assay: Seahorse cellular respiration assay (OCR); format: cell-based, human
Method: Identical parallel cultures were established to test for an effect on cytotoxicity via cellular ATP content. […]. Importantly, the 1-hour culture was conducted in the absence of serum (i.e., no serum protein binding) as is standard for the Seahorse Analyzer assay conditions. However, the 24-hour culture was too long for robust cell culture in the absence of serum. Serum was present up to 1 hour before the assay, when cell culture media was exchanged for the standard assay media. Three independent studies were conducted in duplicate.
To assess the potential mitochondrial liabilities of ubrogepant, cellular respiration assays using a Seahorse XFe96 Flux Analyzer were conducted by Cyprotex (Macclesfield, UK). HepG2 cells were incubated with ubrogepant at concentrations ranging from 0.1 – 125 μM for 1 or 24 hours and tested for an effect on cellular respiration as measured by the oxygen consumption rate (OCR). Three independent studies were conducted in duplicate. Importantly, the 1-hour culture was conducted in the absence of serum (i.e., no serum protein binding) as is standard for the Seahorse Analyzer assay conditions. However, the 24-hour culture was too long for robust cell culture in the absence of serum. Serum was present up to 1 hour before the assay, when cell culture media was exchanged for the standard assay media. The measured OCR was corrected for the relative amounts of viable cells that contributed to the measured OCR, removing the possible interpretation of OCR reductions as being due to cell loss.
To assess the potential mitochondrial liabilities of MK-3207, cellular respiration assays using a Seahorse XFe96 Flux Analyzer were conducted by Cyprotex (Macclesfield, UK). HepG2 cells were incubated with MK-3207 at concentrations ranging from 0.01 – 75 μM for 1 or 24 hours and tested for an effect on cellular respiration as measured by the OCR. Three independent studies were conducted in duplicate. Importantly, the 1-hour culture was conducted in the absence of serum (i.e., no serum protein binding) as is standard for the Seahorse Analyzer assay conditions. However, the 24-hour culture was too long for robust cell culture in the absence of serum. Serum was present up to 1 hour before the assay, when cell culture media was exchanged for the standard assay media. Intracellular MK-3207 concentrations were also assessed in identical duplicate HepG2 cultures. The measured OCR was corrected for the relative amounts of viable cells that contributed to the measured OCR, removing the possible interpretation of OCR reductions as being due to cell loss; the process for this was the same as that described above for ubrogepant.

mouse = assay: Conventional nonclinical toxicology study, mouse
[2] = curve fitting assuming maximum inhibition at higher concentrations is 100%, read-out: MRP3 estimated lowest possible IC50
[3] = HepG2, 1-hour incubation, no serum

Compound | RNS/ROS production rate constant (RNS/ROS production) | IC50 (MRP3; [2]) | inhibition at 70 µM (MRP3; human, membrane vesicles with MRP3 (vesicular transport assay), 70 µM (solubility limit), read-out: maximum inhibition at the highest concentration tested, MRP3) | inhibition of MRP3-mediated probe substrate transport (MRP3) | clinical study exposure (Clinical study exposures; Phase 3, 100 mg QD) | upregulation of pathways associated with electrophilic and proteasomal stress [1] | BA-LRA response ([1]; rat liver, 7 days with 750 mg/kg) | effect on oxygen consumption rate (OCR) (HepG2 cells; [3]) | effect on oxygen consumption rate (OCR) (HepG2 cells; HepG2, 24-hour incubation) | Pivotal conventional nonclinical toxicology study liver findings (mouse; 3M mouse) | exposure margin (mouse; 3M mouse) | inhibition at 20 µM (MRP3; human, membrane vesicles with MRP3 (vesicular transport assay), read-out: maximum inhibition at the highest concentration tested, MRP3) | clinical study exposure (mean) (Clinical study exposures; Phase 3, 280 mg BID (2 h apart)) | maximum liver safe daily dose predicted from BA-LRA [1] | BA-LRA score ([1]; rat liver, 400 mg/kg/day × 4 days, evidence of transcriptional suppression) | Pivotal conventional nonclinical toxicology study liver findings (mouse; 6M mouse) | exposure margin (mouse; 6M mouse) | IC50 (MRP3; used as basolateral transporter inhibition constant, read-out: MRP3 calculated IC50) | clinical study exposure (mean) (Clinical study exposures; Phase 2, 900 mg daily) | BA-LRA score ([1]; rat liver, 600 mg/kg/day × 4 days)
C[C@@H]1[C@H](c2ccccc2)C[C@H](NC(=O)c2cnc3c(c2)C[C@@]2(C3)C(=O)Nc3ncccc32)C(=O)N1CC(F)(F)F [Ubrogepant] | 0.00016 mL/nmol/h | ≥ 85.9 µM | < 50% | inhibited | c Phase 3 clinical study exposures based on 2 μM/h at dose of 100 mg QD. | did not | No BA-LRA response | not after a 1-hour incubation | inhibit the HepG2 OCR in a dose-dependent manner | no liver safety signal | 80 × | – | – | – | – | – | – | – | – | –
O=C(N[C@@H]1CC[C@@H](c2cccc(F)c2F)CN(CC(F)(F)F)C1=O)N1CCC(n2c(=O)[nH]c3ncccc32)CC1 [Telcagepant] | 20,000 mL/mol/hr | ≥ 16.6 µM | – | inhibited | – | upregulated pathways associated with electrophilic and proteasomal stress | – | inhibit the HepG2 OCR in a dose-dependent manner | A similar OCR response | – | – | < 50% | a Phase 3 clinical study exposures based on mean of 70 μM/h at dose of 280 mg BID (2 h apart). | < 600 mg | 0.30 | < 2× ALT/AST with no liver histopathology | 14 × | – | – | –
O=C(CN1C(=O)C2(CCCC2)NC[C@H]1c1cc(F)cc(F)c1)Nc1ccc2c(c1)C[C@@]1(C2)C(=O)Nc2ncccc21 [MK-3207] | 0.00022 mL/nmol/h | – | – | inhibited | – | upregulated pathways associated with electrophilic and proteasomal stress | – | mildly inhibit cellular respiration | mildly inhibit cellular respiration | – | – | – | – | 300 mg | – | no liver safety signal | 12 × | 49.9 µM | b Phase 2 clinical study exposures based on mean of 60 μM/h at dose of 900 mg daily; original projected daily dose was 80 mg. | 0.34
